Measured values reported in patent publication US7528138B2, “Pyrazolo[1,5-a]pyrimidines useful as inhibitors of protein kinases” (Vertex Pharmaceuticals Incorporated, priority 2004, dated 2009).

Tests used:
[1] = biological target: c-Met (Homo sapiens, UniProt P08581); assay: c-Met Inhibition Assay, coupled enzyme system; format: biochemical; settings: enzyme inhibition data (Ki), Table 11
In short: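 Pyruvate kinase/lactate dehydrogenase-coupled NADH assay in HEPES pH 7.5 with 80 nM c-Met, 200 μM ATP and 10 μM polyGluTyr at 30° C. Compound (0.006–12.5 μM final, 12-point) preincubated 10 min before ATP start; rates over 10 min gave Ki.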

[2] = biological target: T1, Itk (Homo sapiens, UniProt Q08881); assay: ITK Inhibition Assay (Radiometric), radioactive-phosphate incorporation; format: biochemical; settings: enzyme inhibition data (Ki), Table 11; radiometric or UV assay not stated
T1 sequence (Q08881 1-620): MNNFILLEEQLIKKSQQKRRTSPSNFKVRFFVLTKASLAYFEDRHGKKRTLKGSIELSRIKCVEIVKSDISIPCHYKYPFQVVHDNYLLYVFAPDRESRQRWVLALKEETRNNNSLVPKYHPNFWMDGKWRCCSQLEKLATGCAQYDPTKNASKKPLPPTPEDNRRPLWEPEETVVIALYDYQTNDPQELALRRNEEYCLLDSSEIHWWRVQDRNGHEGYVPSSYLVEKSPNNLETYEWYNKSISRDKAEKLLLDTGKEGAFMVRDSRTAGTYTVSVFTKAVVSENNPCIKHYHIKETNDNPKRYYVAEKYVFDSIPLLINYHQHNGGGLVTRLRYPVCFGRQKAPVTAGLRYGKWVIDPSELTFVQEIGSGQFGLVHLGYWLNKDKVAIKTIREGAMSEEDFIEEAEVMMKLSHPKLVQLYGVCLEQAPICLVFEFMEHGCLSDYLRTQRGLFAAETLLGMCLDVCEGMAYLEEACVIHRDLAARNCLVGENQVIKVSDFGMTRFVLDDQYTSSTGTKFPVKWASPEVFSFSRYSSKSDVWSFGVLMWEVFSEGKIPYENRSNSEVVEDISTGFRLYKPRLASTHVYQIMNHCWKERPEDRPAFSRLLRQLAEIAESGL
In short: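 Radiometric 33P incorporation into SAM68 peptide (D332-443) with filter capture and scintillation counting; 10 min pre-incubation then 10 min reaction at 25° C. IC50 format: 30 nM Itk, 15 μM ATP, 2 μM peptide, HEPES pH 7.5. Ki(app) format: 50 nM Itk, 7.5 μM ATP, 3 μM peptide, MOPS pH 7.0.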

Sequence of c-Met (P08581 25-1390): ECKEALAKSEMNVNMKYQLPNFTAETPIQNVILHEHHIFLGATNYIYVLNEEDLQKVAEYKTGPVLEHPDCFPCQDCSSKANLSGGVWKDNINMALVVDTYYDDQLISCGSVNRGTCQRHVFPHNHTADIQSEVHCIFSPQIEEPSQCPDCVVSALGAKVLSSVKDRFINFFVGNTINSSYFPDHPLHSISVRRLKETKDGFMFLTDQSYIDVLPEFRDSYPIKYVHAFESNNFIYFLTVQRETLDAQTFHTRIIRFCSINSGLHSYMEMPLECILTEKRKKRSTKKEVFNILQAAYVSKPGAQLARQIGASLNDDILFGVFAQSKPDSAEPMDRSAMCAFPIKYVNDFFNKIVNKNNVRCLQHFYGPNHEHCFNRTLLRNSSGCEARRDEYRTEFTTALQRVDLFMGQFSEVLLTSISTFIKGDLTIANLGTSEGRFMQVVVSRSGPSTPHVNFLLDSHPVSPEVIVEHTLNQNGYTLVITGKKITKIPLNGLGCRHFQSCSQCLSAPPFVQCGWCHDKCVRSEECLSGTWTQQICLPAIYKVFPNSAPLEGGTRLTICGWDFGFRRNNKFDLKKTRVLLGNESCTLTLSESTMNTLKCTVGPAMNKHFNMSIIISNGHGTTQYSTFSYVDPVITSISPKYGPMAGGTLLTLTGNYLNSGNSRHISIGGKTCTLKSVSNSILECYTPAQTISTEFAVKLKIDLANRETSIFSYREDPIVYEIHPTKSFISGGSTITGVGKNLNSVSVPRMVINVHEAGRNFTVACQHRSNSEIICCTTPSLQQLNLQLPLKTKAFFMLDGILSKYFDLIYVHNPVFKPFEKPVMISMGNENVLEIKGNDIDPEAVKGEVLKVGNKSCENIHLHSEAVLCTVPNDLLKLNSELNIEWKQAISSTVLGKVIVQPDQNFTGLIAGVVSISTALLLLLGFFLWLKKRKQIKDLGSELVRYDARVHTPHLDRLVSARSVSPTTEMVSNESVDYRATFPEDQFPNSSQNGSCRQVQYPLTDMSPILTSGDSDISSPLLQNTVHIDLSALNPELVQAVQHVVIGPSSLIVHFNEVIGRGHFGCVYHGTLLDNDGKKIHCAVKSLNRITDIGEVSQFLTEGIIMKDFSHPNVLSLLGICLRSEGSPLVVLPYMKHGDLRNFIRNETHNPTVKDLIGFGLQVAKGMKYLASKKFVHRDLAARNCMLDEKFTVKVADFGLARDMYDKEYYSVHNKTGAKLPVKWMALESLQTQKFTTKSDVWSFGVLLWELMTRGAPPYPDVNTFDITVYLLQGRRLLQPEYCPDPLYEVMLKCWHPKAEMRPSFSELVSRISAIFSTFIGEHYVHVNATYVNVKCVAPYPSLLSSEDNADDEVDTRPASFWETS

SMILES | Ki [1] | Ki [2]
Nc1nn2cc(-c3ccncc3)cnc2c1-c1cc(NCC2CCCCC2)ncn1 [Compound V-184] | < 500 nM | < 500 nM
CN(C)Cc1ccc(-c2cnc3c(-c4ccccn4)c(N)nn3c2)cc1 [Compound V-214] | < 500 nM | < 500 nM
Nc1nn2cc(C(=O)NC3CCCNC3)cnc2c1-c1ccccn1 (stereo not drawn) [Compound V-206] | 500 to 5000 nM | 500 to 5000 nM
CNCCCN(C)C(=O)c1cccc(-c2cnc3c(-c4ccccn4)c(N)nn3c2)c1 [Compound V-190] | < 500 nM | < 500 nM
CNCCCN(C)C(=O)c1ccc(-c2cnc3c(-c4ccccn4)c(N)nn3c2)cc1 [Compound V-191] | < 500 nM | < 500 nM
Nc1nn2cc(-c3ccc4[nH]ccc4c3)cnc2c1-c1ccccn1 [Compound V-212] | < 500 nM | < 500 nM
CCN(CC)CCN(C)C(=O)c1cccc(-c2cnc3c(-c4ccccn4)c(N)nn3c2)n1 [Compound V-124] | < 500 nM | 500 to 5000 nM
CNc1cc(-c2c(N)nn3cc(-c4ccncc4)cnc23)ncn1 [Compound V-181] | < 500 nM | < 500 nM
COC(=O)C1CCCN1C(=O)c1cccc(-c2cnc3c(-c4ccccn4)c(N)nn3c2)n1 (stereo not drawn) [Compound V-139] | < 500 nM | 500 to 5000 nM
Nc1nn2cc(-c3ccc(N4CCC[C@@H]4CN4CCCC4)nc3)cnc2c1-c1ccccn1 [Compound V-176] | < 500 nM | < 500 nM
CNCCCN(C)Cc1ccc(-c2cnc3c(-c4ccccn4)c(N)nn3c2)cc1 [Compound V-230] | < 500 nM | < 500 nM
CC(C)Nc1cc(-c2c(N)nn3cc(-c4ccncc4)cnc23)ncn1 [Compound V-182] | < 500 nM | < 500 nM
CCN(CC)C(=O)c1cccc(-c2cnc3c(-c4ccccn4)c(N)nn3c2)n1 [Compound V-127] | < 500 nM | 500 to 5000 nM
Nc1nn2cc(-c3cccc(CO)c3)cnc2c1-c1ccccn1 [Compound V-221] | < 500 nM | 500 to 5000 nM
CCN(C)C(=O)c1cccc(-c2cnc3c(-c4ccccn4)c(N)nn3c2)n1 [Compound V-115] | < 500 nM | 500 to 5000 nM
Nc1nn2cc(-c3ccc(N4CCNCC4)nc3)cnc2c1-c1ccccn1 [Compound V-151] | < 500 nM | < 500 nM
Cc1ccc(-c2c(N)nn3cc(-c4ccncc4)cnc23)nc1 [Compound V-132] | < 500 nM | 500 to 5000 nM
CC(C)CN(C)c1cc(-c2c(N)nn3cc(-c4ccncc4)cnc23)ncn1 [Compound V-243] | < 500 nM | < 500 nM
CNCc1ccc(-c2cnc3c(-c4ccccn4)c(N)nn3c2)cc1 [Compound V-236] | < 500 nM | < 500 nM
Nc1nn2cc(C#CCO)cnc2c1-c1ccccn1 [Compound V-238] | < 500 nM | 500 to 5000 nM
Nc1nn2cc(-c3ccc(CN4CCNCC4)cc3)cnc2c1-c1ccccn1 [Compound V-217] | < 500 nM | < 500 nM
CCN(CC)c1cc(-c2c(N)nn3cc(-c4ccncc4)cnc23)ncn1 [Compound V-180] | < 500 nM | < 500 nM
CC(C)CN(C)C(=O)c1ccc(-c2cnc3c(-c4ccccn4)c(N)nn3c2)nc1 [Compound V-97] | < 500 nM | < 500 nM
CNC(=O)c1cnc2c(-c3ccccn3)c(N)nn2c1 [Compound V-204] | 500 to 5000 nM | 500 to 5000 nM
CC(C)(O)C#Cc1cnc2c(-c3ccccn3)c(N)nn2c1 [Compound V-237] | < 500 nM | < 500 nM
COc1ccc(-c2cn3nc(N)c(-c4ccccn4)c3nc2C)cc1 [Compound V-216] | 500 to 5000 nM | 500 to 5000 nM
COCCNc1ccc(-c2cnc3c(-c4ccccn4)c(N)nn3c2)cn1 [Compound V-156] | < 500 nM | 500 to 5000 nM
Nc1nn2cc(-c3cccc(N4CCNCC4)c3)cnc2c1-c1ccccn1 [Compound V-222] | < 500 nM | < 500 nM
CCN1CCN(C(=O)c2cccc(-c3cnc4c(-c5ccccn5)c(N)nn4c3)n2)CC1 [Compound V-102] | < 500 nM | 500 to 5000 nM
Nc1nn2cc(-c3ccc(CO)cc3)cnc2c1-c1ccccn1 [Compound V-194] | < 500 nM | < 500 nM
